Measurements reported in patent US20090186874A1, “Carboxamide derivative and use thereof” (priority 2004, published 2009).
pIC50: −log10 of the molar value. Counter-ions that a name gives are not always drawn.

Molecular target: T1, substance P receptor (Homo sapiens, UniProt P25103)
T1 construct: The receptor was prepared from human lymphoblast cells (IM-9); endogenous in cells; host or cells: IM-9 human lymphoblast cells (membrane preparation)
Experiment: Radioligand receptor binding inhibitory activity (125I-BHSP binding to receptor from IM-9 cells)
Details: receptor from human lymphoblast cells (IM-9); radioligand 125I-BHSP; 25° C., 30 minutes
Protocol: Radioligand receptor binding inhibitory activity (Binding inhibitory activity using receptor from human lymphoblast cells (IM-9))
The residue was washed twice with 30 mL of the above-mentioned buffer, which was then preserved frozen (−80° C.) as a specimen of the receptor.
The specimen was suspended in a reaction buffer (50 mM Tri-HCl buffer (pH 7.4), 0.02% bovine serum albumin, 1 mM phenylmethylsulfonyl fluoride, 2 μg/mL chymostatin, 40 μg/mL bacitracin and 3 mM manganese chloride) to have protein in the concentration of 0.5 mg/mL of protein and 100 μl portion of the suspension was used in the reaction. […] The amount of nonspecific binding was determined by adding substance P at a final concentration of 2×10^−6 M.
After the reaction, using a cell harvester (290 PHD, Cambridge Technology, Inc, U.S.A.), filtration was carried out through a glass filter (GF/B, Whatman, U.S.A.), which was immersed in 0.1% polyethyleneimine for 24 hours and dried. After washing three times with 250 μL of 50 mM Tris-HCl buffer (pH 7.4) containing 0.02% bovine serum albumin, the radioactivity remaining on the filter was determined with a gamma counter.

T1 sequence (P25103 whole entry): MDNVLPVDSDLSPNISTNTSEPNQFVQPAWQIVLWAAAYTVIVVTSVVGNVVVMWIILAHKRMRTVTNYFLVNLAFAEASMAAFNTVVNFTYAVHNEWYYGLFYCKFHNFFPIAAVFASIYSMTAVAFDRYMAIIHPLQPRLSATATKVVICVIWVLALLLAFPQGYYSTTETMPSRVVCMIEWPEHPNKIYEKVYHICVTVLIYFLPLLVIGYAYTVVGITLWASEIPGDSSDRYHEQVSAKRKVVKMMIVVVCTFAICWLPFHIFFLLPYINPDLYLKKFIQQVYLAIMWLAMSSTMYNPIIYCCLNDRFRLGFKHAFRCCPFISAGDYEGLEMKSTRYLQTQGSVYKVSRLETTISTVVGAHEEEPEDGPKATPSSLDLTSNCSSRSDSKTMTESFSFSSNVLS

| pIC50 | Structure (SMILES) |
| --- | --- |
| 10.44 | Cc1cc(F)ccc1[C@@H]1CN(Cc2n[nH]c(=O)[nH]2)CC[C@H]1C(=O)N(C)Cc1cc(C(F)(F)F)cc(C(F)(F)F)c1 (relative stereo) [Example 54, (3R*,4R*)-N-[3,5-bis(trifluoromethyl)benzyl]-3-(4-fluoro-2-methylphenyl)-N-methyl-1-[(5-oxo-4,5-dihydro-1H-1,2,4-triazol-3-yl)methyl]piperidine-4-carboxamide] |
| 10.33 | CC(=O)N1CCC(C(=O)N2CC[C@@H](C(=O)N(C)Cc3cc(C(F)(F)F)cc(C(F)(F)F)c3)[C@H](c3ccc(F)cc3C)C2)CC1 (relative stereo) [Example 46, (3R*,4R*)-1-[(1-acetylpiperidin-4-yl)carbonyl]-N-[3,5-bis(trifluoromethyl)benzyl]-3-(4-fluoro-2-methylphenyl)-N-methylpiperidine-4-carboxamide] |
| 10.37 | CC(=O)NCC(=O)N1CC[C@@H](C(=O)N(C)Cc2cc(C(F)(F)F)cc(C(F)(F)F)c2)[C@H](c2ccc(F)cc2C)C1 (relative stereo) [Example 77, (3R*,4R*)-1-(N-acetylglycyl)-N-[3,5-bis(trifluoromethyl)benzyl]-3-(4-fluoro-2-methylphenyl)-N-methylpiperidine-4-carboxamide] |
| 10.66 | Cc1cc(F)ccc1[C@@H]1CN(C(=O)Cn2cnnn2)CC[C@H]1C(=O)N(C)Cc1cc(C(F)(F)F)cc(C(F)(F)F)c1 (relative stereo) [Example 42, (3R*,4R*)-N-[3,5-bis(trifluoromethyl)benzyl]-3-(4-fluoro-2-methylphenyl)-N-methyl-1-(1H-tetrazol-1-ylacetyl)piperidine-4-carboxamide] |
| 10.28 | CC(=O)N1CCC(C(=O)N2CC[C@@H](C(=O)N(C)Cc3cc(C(F)(F)F)cc(C(F)(F)F)c3)[C@H](c3ccc(F)cc3)C2)CC1 (relative stereo) [Example 45, (3R*,4R*)-1-[(1-acetylpiperidin-4-yl)carbonyl]-N-[3,5-bis(trifluoromethyl)benzyl]-3-(4-fluorophenyl)-N-methylpiperidine-4-carboxamide] |
| 10.46 | Cc1cc(F)ccc1[C@@H]1CN(C(N)=O)CC[C@H]1C(=O)N(C)Cc1cc(C(F)(F)F)cc(C(F)(F)F)c1 (relative stereo) [Example 75, (3R*,4R*)-N^4-[3,5-bis(trifluoromethyl)benzyl]-3-(4-fluoro-2-methylphenyl)-N^4-methylpiperidine-1,4-dicarboxamide] |
| 10.01 | CC(=O)N1CCC(C(=O)N2CC[C@@H](C(=O)N(C)Cc3cc(C(F)(F)F)cc(C(F)(F)F)c3)[C@H](c3ccccc3)C2)CC1 (relative stereo) [Example 35, (3R*,4R*)-1-[(1-acetylpiperidin-4-yl)carbonyl]-N-[3,5-bis(trifluoromethyl)benzyl]-N-methyl-3-phenylpiperidine-4-carboxamide] |
| 10.31 | CC(=O)N1CCC(C(=O)N2CC[C@H](C(=O)N(C)Cc3cc(C(F)(F)F)cc(C(F)(F)F)c3)[C@H](c3ccccc3)C2)CC1 (relative stereo) [Example 30, (3R*,4S*)-1-[(1-acetylpiperidin-4-yl)carbonyl]-N-[3,5-bis(trifluoromethyl)benzyl]-N-methyl-3-phenylpiperidine-4-carboxamide] |
| 10.29 | Cc1cc(F)ccc1[C@@H]1CNCC[C@H]1C(=O)N(C)Cc1cc(C(F)(F)F)cc(C(F)(F)F)c1 (relative stereo) [Example 12, (3R*,4R*)-N-[3,5-bis(trifluoromethyl)benzyl]-3-(4-fluoro-2-methylphenyl)-N-methylpiperidine-4-carboxamide hydrochloride] |
| 10.60 | CCN(CC)CCC(=O)N1CC[C@@H](C(=O)N(C)Cc2cc(C(F)(F)F)cc(C(F)(F)F)c2)[C@H](c2ccc(F)cc2C)C1 (relative stereo) [Example 41, (3R*,4R*)-N-[3,5-bis(trifluoromethyl)benzyl]-1-(N,N-diethyl-β-alanyl)-3-(4-fluoro-2-methylphenyl)-N-methylpiperidine-4-carboxamide Hydrochloride] |
| 10.72 | CC(=O)N1CCC(C(=O)N2CC[C@H](C(=O)N(C)Cc3cc(C(F)(F)F)cc(C(F)(F)F)c3)[C@H](c3ccc(F)cc3)C2)CC1 (relative stereo) [Example 44, (3R*,4S*)-1-[(1-acetylpiperidin-4-yl)carbonyl]-N-[3,5-bis(trifluoromethyl)benzyl]-3-(4-fluorophenyl)-N-methylpiperidine-4-carboxamide] |
| 10.24 | COCC(=O)N1CC[C@@H](C(=O)N(C)Cc2cc(C(F)(F)F)cc(C(F)(F)F)c2)[C@H](c2ccc(F)cc2C)C1 (relative stereo) [Example 40, (3R*,4R*)-N-[3,5-bis(trifluoromethyl)benzyl]-3-(4-fluoro-2-methylphenyl)-1-(methoxyacetyl)-N-methylpiperidine-4-carboxamide] |
| 10.28 | Cc1cc(F)ccc1[C@@H]1CN(C(=O)C(N)=O)CC[C@H]1C(=O)N(C)Cc1cc(C(F)(F)F)cc(C(F)(F)F)c1 (relative stereo) [Example 73, (3R*,4R*)-1-[amino(oxo)acetyl]-N-[3,5-bis(trifluoromethyl)benzyl]-3-(4-fluoro-2-methylphenyl)-N-methylpiperidine-4-carboxamide] |
| 10.19 | Cc1cc(F)ccc1[C@@H]1CN(C(=O)CC2NC(=O)NC2=O)CC[C@H]1C(=O)N(C)Cc1cc(C(F)(F)F)cc(C(F)(F)F)c1 (relative stereo) [Example 43, (3R*,4R*)-N-[3,5-bis(trifluoromethyl)benzyl]-1-[(2,5-dioxoimidazolidin-4-yl)acetyl]-3-(4-fluoro-2-methylphenyl)-N-methylpiperidine-4-carboxamide] |
